Biological target: T1, ATM3 (Arabidopsis thaliana, UniProt Q9LVM1)
T1 construct: gene ABCB25; inside-out membrane vesicles or Ni-NTA purified in detergent; half-transporter that dimerizes
Assay: ATPase activity, malachite green Pi release
Type: biochemical
Conditions: 5 mM Na-ATP, 5 mM MgCl2, 0.1 M HEPES-KOH pH 7.0, 30 °C

T1 sequence (Q9LVM1 61-728): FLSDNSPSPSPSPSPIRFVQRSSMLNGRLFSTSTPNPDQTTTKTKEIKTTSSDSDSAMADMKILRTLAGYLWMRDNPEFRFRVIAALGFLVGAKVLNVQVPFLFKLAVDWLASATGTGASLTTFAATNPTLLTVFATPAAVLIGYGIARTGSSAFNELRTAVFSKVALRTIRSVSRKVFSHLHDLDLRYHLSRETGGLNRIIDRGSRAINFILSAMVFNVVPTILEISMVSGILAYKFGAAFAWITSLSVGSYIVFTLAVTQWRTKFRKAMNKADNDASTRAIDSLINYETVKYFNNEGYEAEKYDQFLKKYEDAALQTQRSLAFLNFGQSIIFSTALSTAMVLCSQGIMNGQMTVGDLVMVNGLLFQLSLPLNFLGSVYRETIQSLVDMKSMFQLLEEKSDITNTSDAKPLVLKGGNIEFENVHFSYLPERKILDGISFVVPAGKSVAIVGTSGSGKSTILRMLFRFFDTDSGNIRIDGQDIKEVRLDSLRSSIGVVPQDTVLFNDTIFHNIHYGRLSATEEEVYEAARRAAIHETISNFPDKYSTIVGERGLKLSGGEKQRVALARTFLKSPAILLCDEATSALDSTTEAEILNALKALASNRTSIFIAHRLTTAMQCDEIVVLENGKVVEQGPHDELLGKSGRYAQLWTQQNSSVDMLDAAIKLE

Nc1ncnc2c1ncn2[C@@H]1O[C@H](COP(=O)(O)OP(=O)(O)OP(=O)(O)O)[C@@H](O)[C@H]1O [ATP]
ATPase activity, malachite green Pi release: retained their ATPase activity in detergent solution
